We go through nine compounds from patent publication US10524469B2, “Acetate derived compounds from geranylorcinol. synthesis process for obtaining said compounds and use of said compounds as antifungal against Botrytis cinerea” (UNIVERSIDAD TÉCNICA FEDERICO SANTA MARÍA, priority 2015, dated 2020).

Read-outs that look alike come from different tables or passages of the source.

The test has as its system Botrytis cinerea. The experiment in a line: Mycelial growth inhibition of B. cinerea, radial growth method in PDA. Type of test: cell-based. The following applies: for inhibition at 50 ppm / inhibition at 150 ppm / inhibition at 250 ppm: Botrytis cinerea; for Activity compared with the positive control when encapsulated in Pluronic F-127 micelle (in words): encapsulated in polymeric Pluronic F-127 micelle. Here is the method: 20-40 milligrams of each of compounds 1 to 8 were dissolved in 500 microliters of Ethanol to have a stock solution of each compound according to its molecular weight. The stock solution was diluted in 5 mL of water so as to obtain a new stock solution of 5,000 ppm; from which corresponding aliquots were taken to achieve a final concentration on each plate with 50, 150 and 250 ppm potato dextrose agar (PDA) culture medium.
The method used for the preparation of polymeric micelles, based on Polycaprolactone (MW: 3.409 g/mol) or Pluronic® F-127 (MW: 12,500 g/mol) corresponds to the direct dissolution method consisting of the addition of the polymer to water with stirring and at room temperature, until the polymer dissolves to give a clear aqueous solution. The amount of polymer and water is chosen so as to have a solution of a concentration of 1×10^−3 M of polymer chains.
For the preparation of a solution of 50 mL of Pluronic F-127, 0.63 g is used and for the case of polycaprolactone 0.17 g is used.
The physical encapsulation of the compounds in the polymeric micelles (1×10^−3 M) is carried out by the emulsion method. The compound is dissolved in a volatile solvent (dichloromethane) and […] the polymer solution added in 100 μL aliquots to complete 400 μL reaching a concentration of 0.101 M of compound. By stirring in a vortex and applying ultrasound a very homogeneous milky emulsion is formed. The organic solvent is then removed by evaporation by heating the emulsion at 50° C. in a system open to air. Upon removal of the solvent, a clear solution remains containing the polymer forming micelles and the non-polar compounds which have been encapsulated in the hydrophobic micro-domain provided by the core of these polymeric micelles.
Subsequently, the solution is diluted by adding polymer solution corresponding to a 1×10^−3 M concentration until the compound of interest reaches a stock concentration in the range of 625-1,250 ppm in the micelle to be applied to the plate. This dilution should be done by adding polymer solution so as to maintain the same concentration of micelles and vary only the concentration of active ingredient.
In order to determine the inhibition of mycelial growth of B. cinerea, both for the free state and encapsulated compounds, the radial growth method in potato dextrose agar (PDA) culture medium was used. The compounds of interest in both free and encapsulated form were added to the PDA at different concentrations of 50, 150 and 250 ppm at a temperature of 50° C. Once the PDA had been solidified, a 4-mm diameter disc was seeded with mycelium of the pathogen in the center of the petri dish. The experiment consists of a negative control which is a petri dish where PDA culture medium and 1% Ethanol were added, in the case of Negative Control for encapsulated compounds it consists in adding only the micelle (polycaprolactone or Pluronic […]) free in PDA. In addition, a positive control containing commercially available fungicide Captan in PDA culture medium is included at the same concentrations tested in both its free form and also a positive control of Captan in its encapsulated form. Each treatment consisted of three replicates (n=3 replicates/compound/concentration).
After 48 (free state) and 72 (encapsulated system) hours of incubation at 23° C. under a photoperiod of 16 light hours/8 darkness hours, the mycelial growth inhibition percentage (MGIP) was calculated by assessing the measurement of the diameter of the fungus growth around the disc to calculate the mycelial growth inhibition area. In this way, the mycelial growth inhibition percentage that was compared to the corresponding controls after 48 hours of incubation was determined.

Setting [1] is: encapsulated in Pluronic F-127 (Triblock) micelles, 50 ppm, 72 hours.
The mark [2] stands for this setting: 48 h, read-out: Mycelial inhibition percentage of Botrityscinerea in vitro, free compound, 50 ppm in PDA, 48 hours of incubation.
[3] abbreviates: 48 h, read-out: Mycelial inhibition percentage of Botrityscinerea in vitro, free compound, 150 ppm in PDA, 48 hours of incubation.
Setting [4] is: 48 h, read-out: Mycelial inhibition percentage of Botrityscinerea in vitro, free compound, 250 ppm in PDA, 48 hours of incubation.
[5] abbreviates: 72 h, read-out: Mycelial inhibition percentage of Botrityscinerea in vitro, encapsulated in Polycaprolactone (Diblock) micelles, 50 ppm, 72 hours.
Where [6] appears, read: 72 h, read-out: Mycelial inhibition percentage of Botrityscinerea in vitro, encapsulated in Polycaprolactone (Diblock) micelles, 150 ppm, 72 hours.
Setting [7] is: 72 h, read-out: Mycelial inhibition percentage of Botrityscinerea in vitro, encapsulated in Polycaprolactone (Diblock) micelles, 250 ppm, 72 hours.
Where [8] appears, read: 72 h, read-out: Mycelial inhibition percentage of Botrityscinerea in vitro, encapsulated in Pluronic F-127 (Triblock) micelles, 50 ppm, 72 hours.
Where [9] appears, read: 72 h, read-out: Mycelial inhibition percentage of Botrityscinerea in vitro, encapsulated in Pluronic F-127 (Triblock) micelles, 150 ppm, 72 hours.
Setting [10] is: 72 h, read-out: Mycelial inhibition percentage of Botrityscinerea in vitro, encapsulated in Pluronic F-127 (Triblock) micelles, 250 ppm, 72 hours.

On to `O=C1C2CC=CCC2C(=O)N1SC(Cl)(Cl)Cl` (stereo not shown) [C+ (positive control), Captan, reference compound], for which the “Mycelial inhibition percentage of Botrityscinerea in vitro” value (shortened to “Mycelial inhibition percentage”) by setting is: under setting [1], 98%; (encapsulated in Pluronic F-127 (Triblock) micelles, 150 ppm, 72 hours) 99%; (encapsulated in Pluronic F-127 (Triblock) micelles, 250 ppm, 72 hours) 99%; (encapsulated in Polycaprolactone (Diblock) micelles, 50 ppm, 72 hours) 93%; (encapsulated in Polycaprolactone (Diblock) micelles, 150 ppm, 72 hours) 99%; (encapsulated in Polycaprolactone (Diblock) micelles, 250 ppm, 72 hours) 99%. The “Mycelial inhibition percentage” value (free compound, 50 ppm in PDA, 48 hours of incubation) is 87%; the “Mycelial inhibition percentage” value (free compound, 150 ppm in PDA, 48 hours of incubation) was 94%; the “Mycelial inhibition percentage” value (free compound, 250 ppm in PDA, 48 hours of incubation) amounted to 94%.

As for `CC(C)=CCC/C(C)=C/Cc1c(C)cc(O)cc1O` [Formula 1], the “Effect on the mycelium of the pathogen when encapsulated in polycaprolactone micelles (in words)” value is “slightly improved”. Further, the inhibition at 50 ppm under setting [2] came to 0%. Moreover, the inhibition at 150 ppm under setting [3] stood at 25%. Also, the inhibition at 250 ppm under setting [4] is 75%. The inhibition at 50 ppm under setting [5] is 37%. In addition, under setting [6], the inhibition at 150 ppm was determined as 61%. The inhibition at 250 ppm under setting [7] came out at 73%.

Regarding `CC(C)=CCC/C(C)=C/Cc1c(C)cc(O)c(C/C=C(\C)CCC=C(C)C)c1O` [Formula 2], the “Activity compared with the positive control when encapsulated in Pluronic F-127 micelle (in words)” value is recorded as “equal to the activity of the positive control”. In addition, under setting [2], the inhibition at 50 ppm worked out at 25%. Besides, the inhibition at 150 ppm under setting [3] was 61%. Further, the inhibition at 250 ppm under setting [4] amounted to 93%. Further, under setting [8], the inhibition at 50 ppm was 81 to 99%. The inhibition at 150 ppm under setting [9] was determined as 91%. Under setting [10], the inhibition at 250 ppm worked out at 96%. The inhibition at 50 ppm under setting [5] worked out at 16%. Also, the inhibition at 150 ppm under setting [6] is 36%. Further, the inhibition at 250 ppm under setting [7] worked out at 37%. Further, under setting [1], the “Mycelial inhibition percentage” value stood at 85%.

As to `CC(C)=CCC/C(C)=C/Cc1c(O)cc(C)cc1O` [Formula 3], the “Effect on the mycelium of the pathogen when encapsulated in polycaprolactone micelles (in words)” value is “inactive”. For the same compound, the inhibition at 50 ppm under setting [2] came to 37%. The inhibition at 150 ppm under setting [3] is 65%. Further, under setting [4], the inhibition at 250 ppm stood at 82%. The inhibition at 50 ppm under setting [5] is 9%. Under setting [6], the inhibition at 150 ppm turned out to be 32%. Besides, the inhibition at 250 ppm under setting [7] is 42%.

For `CC(C)=CCC/C(C)=C/Cc1c(O)cc(O)c(C/C=C(\C)CCC=C(C)C)c1C` [Formula 4], the “Activity compared with the positive control when encapsulated in Pluronic F-127 micelle (in words)” value is “equal to the activity of the positive control”. Also, the inhibition at 50 ppm under setting [2] was 12%. Also, the inhibition at 150 ppm under setting [3] was determined as 56%. For the same compound, the inhibition at 250 ppm under setting [4] was 83%. Besides, the inhibition at 50 ppm under setting [8] was 81 to 99%. Moreover, the inhibition at 150 ppm under setting [9] is 92%. Under setting [10], the inhibition at 250 ppm is 96%. The inhibition at 50 ppm under setting [5] stood at 93%. Under setting [6], the inhibition at 150 ppm was 94%. Also, under setting [7], the inhibition at 250 ppm came out at 97%. In addition, under setting [1], the “Mycelial inhibition percentage” value turned out to be 82%.

Turning to `CC(=O)Oc1cc(C)c(C/C=C(\C)CCC=C(C)C)c(OC(C)=O)c1` [Formula 5], the inhibition at 50 ppm (encapsulated in Polycaprolactone (Diblock) micelles, 50 ppm, 72 hours, read-out: Mycelial inhibition percentage of Botrityscinerea in vitro) was 16% and the inhibition at 50 ppm (free compound, 50 ppm in PDA, 48 hours of incubation, read-out: Mycelial inhibition percentage of Botrityscinerea in vitro) came to 24%. Moreover, the inhibition at 150 ppm reads like this: (encapsulated in Polycaprolactone (Diblock) micelles, 150 ppm, 72 hours, read-out: Mycelial inhibition percentage of Botrityscinerea in vitro) 39%; (free compound, 150 ppm in PDA, 48 hours of incubation, read-out: Mycelial inhibition percentage of Botrityscinerea in vitro) 55%. The inhibition at 250 ppm is 80% (encapsulated in Polycaprolactone (Diblock) micelles, 250 ppm, 72 hours, read-out: Mycelial inhibition percentage of Botrityscinerea in vitro) and 78% (free compound, 250 ppm in PDA, 48 hours of incubation, read-out: Mycelial inhibition percentage of Botrityscinerea in vitro).

Turning to `CC(=O)Oc1cc(C)c(C/C=C(\C)CCC=C(C)C)c(OC(C)=O)c1C/C=C(\C)CCC=C(C)C` [Formula 6], the “Activity compared with the positive control when encapsulated in Pluronic F-127 micelle (in words)” value is given as “equal to the activity of the positive control”. Moreover, under setting [2], the inhibition at 50 ppm came out at 5%. Also, the inhibition at 150 ppm under setting [3] was found to be 69%. Moreover, the inhibition at 250 ppm under setting [4] was determined as 97%. Under setting [8], the inhibition at 50 ppm was in the range of 81 to 99%. In addition, the inhibition at 150 ppm under setting [9] was 99%. Further, the inhibition at 250 ppm under setting [10] is 99%. The inhibition at 50 ppm under setting [5] is 10%. Besides, the inhibition at 150 ppm under setting [6] was found to be 31%. The inhibition at 250 ppm under setting [7] came out at 50%. Besides, the “Mycelial inhibition percentage” value under setting [1] is 93%.

With `CC(=O)Oc1cc(C)cc(OC(C)=O)c1C/C=C(\C)CCC=C(C)C` [Formula 7], the inhibition at 50 ppm came to 8% under setting [2] and 32% under setting [5]. Also, the inhibition at 150 ppm was determined as 51% under setting [3] and 35% under setting [6]. For the same compound, the inhibition at 250 ppm worked out at 82% under setting [4] and 59% under setting [7].

For `CC(=O)Oc1cc(OC(C)=O)c(C/C=C(\C)CCC=C(C)C)c(C)c1C/C=C(\C)CCC=C(C)C` [Formula 8], the “Activity compared with the positive control when encapsulated in Pluronic F-127 micelle (in words)” value is “equal to the activity of the positive control”. The inhibition at 50 ppm under setting [2] was 11%. The inhibition at 150 ppm under setting [3] was determined as 54%. Further, the inhibition at 250 ppm under setting [4] came out at 85%. In addition, the inhibition at 50 ppm under setting [8] was in the range of 81 to 99%. For the same compound, the inhibition at 150 ppm under setting [9] worked out at 99%. For the same compound, the inhibition at 250 ppm under setting [10] was found to be 99%. Moreover, the inhibition at 50 ppm under setting [5] was 0%. For the same compound, under setting [6], the inhibition at 150 ppm was 36%. Also, the inhibition at 250 ppm under setting [7] was 36%. Further, the “Mycelial inhibition percentage” value under setting [1] is 93%.

One may read the inhibition as the change of the read-out against control, counted positive when it falls.
